1 compound from patent US20170355959A1, “METHODS FOR MOBILISING POPULATIONS OF STEM CELLS” (Imperial Innovations Limited, priority 2014, published 2017) can be followed below.

One experiment concerns free fatty acids. Briefly: Free fatty acid assay in blood plasma. To be noted: treatment over 4 days. The class given is in vivo, mice. How it is done: Mice were administered the β-adrenergic agonists isoproterenol (10 mg/kg i.p.), clenbuterol (5 mg/kg i.p.) and BRL 37344 (10 mg/kg i.p.), the cannabinoid receptor agonists ACEA (10 mg/kg i.p.) and GP1a (5 mg/kg i.p.), or vehicle either on 4 consecutive days or 2 hours prior to the cull. 1 hour after the last injection, mice were administered the CXCR4 antagonist AMD3100 (5 mg/kg i.p.) or vehicle. 1 hour later their blood was collected via cardiac puncture for enumeration of circulating CFU-HPCs and CFU-Fs. Mice were administered murine G-CSF (100 μg/kg i.p.) or vehicle on 4 consecutive days. On day 5, blood was collected via cardiac puncture for enumeration of circulating HSPCs.
Free fatty acid content in blood plasma was quantified using a serum/plasma fatty acid detection Kit (Zen Bio) and the assay was performed according to the manufacturers' instructions. Data are expressed as μM concentration of free fatty acids.

Another experiment relates to HSPCs. Briefly: Mobilization of HSPCs into peripheral blood (CFU-HPC assay). The class given is in vivo. Conditions: mice pre-treated with 0-30 mg/kg BRL37344 for 4 days.
The subject of the next experiment is HPCs. Briefly: In situ perfusion of mouse hind limb, CFU-HPCs in perfusate. The class given is in vivo, mice. Conditions: four day pretreatment, b3 adrenergic agonist in combination with FAAH inhibitor. As to the method:
Mice were administered BRL 37344 (10 mg/kg i.p.) or vehicle on 4 consecutive days. 1 hour after the last injection, the mice were anaesthetized. The femoral vein and artery were exposed and cannulated in situ immediately after the hind limb was isolated by occlusion of the surrounding arteries as previously described (Pitchford et al, 2009; Pitchford et al, 2010). Perfusion buffer was infused via the arterial cannula and removed from the venous cannula using a Minipuls Peristaltic Pump (Anachem). The hind limb was initially infused with AMD3100 (0.1 mM) or vehicle for 10 minutes using an infusion/withdrawal pump (Harvard Instruments) and was further perfused for 50 minutes with perfusion buffer (Pitchford et al, 2010). The perfusate was collected over 60 minutes and then centrifuged and resuspended in DMEM (Gibco) +20% fetal bovine serum for enumeration of CFU-HPCs and CFU-Fs.
Harvested peripheral blood or perfusate was red blood cell-lysed and 1×10^5 cells were added to tissue culture-treated petri dishes containing 1 ml of Methocult™ (M3434; StemCell Technologies) to select for CFU-HPCs. Cultures were incubated at 37° C. and quantified on day 12. Similarly, 1×10^6 bone marrow cells harvested by bone marrow flush of the hind limb femur were plated for CFU-HPCs.

The next experiment deals with CFU-Fs (MSPCs). Description: Mobilization of MSPCs into peripheral blood (CFU-F assay). It is filed as in vivo, mice.
The test system of experiment [1] is endocannabinoids and N-acyl ethanolamides. Briefly: Lipid mediator quantification in bone marrow by UPLC/ESI-MS/MS. The class given is in vivo, mice. How it is done: Plasma and bone marrow flush (pool of 3 mice, n=1) were processed in order for the extraction of endocannabinoids and congeners (Astarita and Piomelli, 2009; Kingsley and Marnett, 2009). Samples were analysed on an electrospray (ESI) tandem quadrupole Xevo TQ-S mass spectrometer (MS/MS; Waters) coupled to an Acquity Ultrahigh Pressure Chromatography (UPLC) system, and the concentration of analytes was calculated (TargetLynx). Further details concerning extraction and analysis can be found in the Supplemental Experimental Procedures.
Bone marrow flushed from the femurs of 3 mice were pooled (6 ml in total) per treatment to give an n=1 sample. This volume was required to achieve sufficient concentrations of endocannabinoids and N-acyl ethanolamides for detection by UPLC/ESI-MS/MS. Extraction of lipids was carried out by addition of chloroform:methanol (2:1, v/v) (Astarita and Piomelli, 2009; Kingsley and Mamett, 2009). Specifically, ice cold chloroform:methanol was added to each bone marrow supernatant (ml per pooled bone marrow sample), followed by the internal standards AEA-d8 (20 ng) and 2AG-d8 (40 ng). The resulting suspensions were kept on ice for 30 min with occasional vortexing and centrifuged at 5000 rpm for 8 min, to separate the organic and aqueous phases. The organic layer (bottom) from each sample was then removed into a clean vial. The supernatant was evaporated under a fine stream of nitrogen. Once dried the extract was reconstituted in 1 ml of chloroform and semi-purified by SPE (Guo et al, 2010). Briefly, the silica cartridge was equilibrated with 5×1 ml cholorform, the extract was applied, the cartridge was washed with 2×1 ml chloroform and the endocannabinoids eluted with 5×1 ml chloroform:methanol (2:1 v/v). The remaining residue, reconstituted in 100 μL ethanol was stored at −20° C., for no more than 1 week, awaiting UPLC/ESI-MS/MS analysis.
All analysis was performed on an electrospray (ESI) tandem quadrupole Xevo TQ-S mass spectrometer (Waters) coupled to an Acquity Ultrahigh Pressure Chromatography (UPLC) system. The system was controlled by MassLynx v4.1 Software. TargetLynx was used to construct calibration lines and calculate the concentration of analytes of interest. Optimised ESI-MS/MS conditions were achieved through the use of Intellistart within MassLynx software. Individual standards (100 pg/μl) were introduced into the spectrometer by direct infusion via the Xevo TQ-S integrated syringe pump (flow rate 10 μl/min) combined with UPLC solvent flow (rate 0.2 mL/min). All analytes were monitored on the positive ionisation mode. Capillary voltage was set at 2000V, source temperature at 150° C., desolvation temperature at 400° C. and the cone voltage at 20 V. […]

The mark [2] stands for this setting: 4 days, in combination with FAAH inhibition, versus FAAH inhibition only.

For `C[C@H](Cc1ccc(OCC(=O)O)cc1)NC[C@H](O)c1cccc(Cl)c1` [BRL37344], the “FFA levels in plasma” value with free fatty acids is listed as “an increase”. The “dose dependence of HSPC mobilization in response to the CXCR4 antagonist” value with HSPCs was “dose response relationship”. Also, the “HPC egress from the bone marrow in response to infusion of the CXCR4 antagonist” value in the experiment on HPCs is “significantly enhanced both HPC and MSC egress from the bone marrow”. Also, the “pre-treatment time needed for CFU-F mobilization” value in the experiment on CFU-Fs (MSPCs) (2 h versus 4 d pre-treatment, then AMD3100) was “required the pre-treatment of mice over 4 days to see this effect”. Also, the “dose dependence of CFU-F mobilization in response to the CXCR4 antagonist” value with CFU-Fs (MSPCs) (mouse, in vivo) was “dose response relationship”. Besides, the “circulating CFU-Fs” value in the experiment with CFU-Fs (MSPCs) (pre-treated once daily for 4 days, then AMD3100, blood 1 hour later) is “significantly boosted circulating numbers of HSPCs and CFU-Fs as compared to that observed with isoproterenol and AMD3100 in combination”. Also, in experiment [1] (setting [2]), the “bone marrow levels of 2-AG” value is on record as “significantly increased”, the “bone marrow levels of DHEA” value is given as “significantly increased” and the “bone marrow levels of PEA” value is given as “significantly increased”. Further, the “bone marrow levels of other N-acyl ethanolamides, including AEA” value in experiment [1] (following administration in vivo) is given as “remained unchanged”.
